Measurements taken from patent US8618095B2 (Rigel Pharmaceuticals, Inc., priority 2010, dated 2013).
pIC50: −log10 of the molar value. Where a name gives a salt, the structure may show the parent alone.

tested on: Human mast cells (CHMC); test: LD Tryptase release assay in CHMC (mast cell activation induced by FcγR cross-linking); assay type: cell-based; conditions: Homo sapiens, Mast cell, anti-IgG stimulation, activity of tryptase released upon degranulation
In short: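 Mast cells derived from CD38-negative progenitors were preincubated 1 h at 37 °C with compound in HEPES-buffered saline (pH 7.4, 0.1% BSA, compound diluted in buffer with 2% MeOH/1% DMSO). Cells were then stimulated 60 min with anti-human IgG (final 1 μg/mL). Released tryptase was measured on Z-Ala-Lys-Arg-AMC (30 min, room temperature, 355/460 nm) to give the IC50.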

| SMILES | pIC50 |
| --- | --- |
| CC1(C)Oc2ccc(Nc3nc(Nc4ccc(N5CCN6CCC5CC6)nc4)ncc3F)nc2NC1=O [Compound 62, N4-(2,2-dimethyl-3,4-dihydro-3-oxo-2H-pyrido[3,2-b][1,4]oxazin-6-yl)-5-fluoro-N2-[6-(1,4-diazabicyclo[3.2.2]nonan-4-yl)pyridin-3-yl]-2,4-pyrimidinediamine] | 6.00 to 6.30 |
| CC1(C)Oc2ccc(Nc3nc(Nc4ccc(N5CCC(N6CCOCC6)C5)nc4)ncc3F)nc2NC1=O (stereo not shown) [Compound 67, N4-(2,2-dimethyl-3,4-dihydro-3-oxo-2H-pyrido[3,2-b][1,4]oxazin-6-yl)-5-fluoro-N2-[6-(3-morpholinopyrrolidin-1-yl)pyridin-3-yl]-2,4-pyrimidinediamine] | 6.30 to 7.00 |
| Cc1cc(Nc2ncc(F)c(Nc3ccc4c(n3)NC(=O)C(C)(C)O4)n2)ccc1N1CCC2(CCOC2)CC1 [Compound 159, N4-(2,2-dimethyl-3,4-dihydro-3-oxo-2H-pyrido[3,2-b][1,4]oxazin-6-yl)-5-fluoro-N2-[3-methyl-4-(2-oxa-8-azaspiro[4.5]decan-8-yl)phenyl]-2,4-pyrimidinediamine] | 6.00 to 6.30 |
| CCO[C@H]1CCN(c2ccc(Nc3ncc(F)c(Nc4ccc5c(n4)NC(=O)C(C)(C)O5)n3)cn2)C1 [Compound 57, N4-(2,2-dimethyl-3,4-dihydro-3-oxo-2H-pyrido[3,2-b][1,4]oxazin-6-yl)-5-fluoro-N2-1-2,4-pyrimidinediamine] | 6.30 to 7.00 |
| C[C@H]1CN(c2ccc(Nc3ncc(F)c(Nc4ccc5c(n4)NC(=O)C(C)(C)O5)n3)cc2)CCO1 [Compound 79, N4-(2,2-dimethyl-3,4-dihydro-3-oxo-2H-pyrido[3,2-b][1,4]oxazin-6-yl)-5-fluoro-N2-1-2,4-pyrimidinediamine] | 6.30 to 7.00 |
| CN1CCN(c2ccc(Nc3ncc(F)c(Nc4ccc5c(n4)NC(=O)C(C)(C)O5)n3)cn2)CC1 [Compound 18, N4-(2,2-dimethyl-3,4-dihydro-3-oxo-2H-pyrido[3,2-b][1,4]oxazin-6-yl)-5-fluoro-N2-[6-(4-methylpiperazin-1-yl)pyridin-3-yl]-2,4-pyrimidinediamine] | 6.00 to 6.30 |
| CC1(C)Oc2ccc(Nc3nc(Nc4ccc(-c5cccnc5)nc4)ncc3F)nc2NC1=O [Compound 75, N4-(2,2-dimethyl-3,4-dihydro-3-oxo-2H-pyrido[3,2-b][1,4]oxazin-6-yl)-5-fluoro-N2-[2,3′-bipyridin-5-yl]-2,4-pyrimidinediamine] | 4.00 to 6.00 |
| COc1cc(Nc2ncc(F)c(Nc3ccc4c(n3)NC(=O)C(C)(C)O4)n2)ccc1C1CCOCC1 [Compound 48, N4-(2,2-dimethyl-3,4-dihydro-3-oxo-2H-pyrido[3,2-b][1,4]oxazin-6-yl)-5-fluoro-N2-[-3-methoxy-4-tetrahydropyranophenyl]-2,4-pyrimidinediamine] | 6.30 to 7.00 |
| CC1(C)Oc2ccc(Nc3nc(Nc4ccc(C5CCOCC5)nc4)ncc3F)nc2NC1=O [Compound 22, N4-(2,2-dimethyl-3,4-dihydro-3-oxo-2H-pyrido[3,2-b][1,4]oxazin-6-yl)-5-fluoro-N2-[6-tetrahydropyranopyridin-3-yl]-2,4-pyrimidinediamine] | 6.30 to 7.00 |
| CC1(C)Oc2ccc(Nc3nc(Nc4ccc(N5CCC(F)(F)CC5)c(F)c4)ncc3F)nc2NC1=O [Compound 30, N4-(2,2-dimethyl-3,4-dihydro-3-oxo-2H-pyrido[3,2-b][1,4]oxazin-6-yl)-5-fluoro-N2-[3-fluoro-4-(4,4-difluoro-1-piperidinyl)phenyl]-2,4-pyrimidinediamine] | 4.00 to 6.00 |
| CC1(C)CN(c2ncc(Nc3ncc(F)c(Nc4ccc5c(n4)NC(=O)C(C)(C)O5)n3)cc2F)CCO1 [Compound 15, N4-(2,2-dimethyl-3,4-dihydro-3-oxo-2H-pyrido[3,2-b][1,4]oxazin-6-yl)-5-fluoro-N2-[5-fluoro-6-(2,2-dimethylmorpholino)pyridin-3-yl]-2,4-pyrimidinediamine] | 4.00 to 6.00 |
| O=C1COc2ccc(Nc3nc(Nc4ccc(N5CCOCC5)nc4)ncc3F)nc2N1 [Compound 5, N4-(3,4-dihydro-3-oxo-2H-pyrido[3,2-b][1,4]oxazin-6-yl)-5-fluoro-N2-[6-morpholinopyridin-3-yl]-2,4-pyrimidinediamine] | 6.30 to 7.00 |
| CC1(C)Oc2ccc(Nc3nc(Nc4ccc(N5CCCOCC5)cc4)ncc3F)nc2NC1=O [Compound 43, N4-(2,2-dimethyl-3,4-dihydro-3-oxo-2H-pyrido[3,2-b][1,4]oxazin-6-yl)-5-fluoro-N2-[4-homomorpholinophenyl]-2,4-pyrimidinediamine] | 6.30 to 7.00 |
| CCOC1CCN(c2ccc(Nc3ncc(F)c(Nc4ccc5c(n4)NC(=O)C(C)(C)O5)n3)cn2)CC1 [Compound 54, N4-(2,2-dimethyl-3,4-dihydro-3-oxo-2H-pyrido[3,2-b][1,4]oxazin-6-yl)-5-fluoro-N2-[6-(4-ethoxypiperidin-1-yl)pyridin-3-yl]-2,4-pyrimidinediamine] | 4.00 to 6.00 |
| COc1cc(Nc2ncc(F)c(Nc3ccc4c(n3)NC(=O)C(C)(C)O4)n2)cnc1N1CCOCC1 [Compound 21, N4-(2,2-dimethyl-3,4-dihydro-3-oxo-2H-pyrido[3,2-b][1,4]oxazin-6-yl)-5-fluoro-N2-[5-methoxy-6-morpholinopyridin-3-yl]-2,4-pyrimidinediamine] | 6.30 to 7.00 |
| C[C@H]1CN(c2ccc(Nc3ncc(F)c(Nc4ccc5c(n4)NC(=O)C(C)(C)O5)n3)cn2)[C@@H](C)CO1 (racemic) [Compound 105, rac-N4-(2,2-dimethyl-3,4-dihydro-3-oxo-2H-pyrido[3,2-b][1,4]oxazin-6-yl)-5-N2-[6-(2,5-dimethylmorpholino)pyridin-3-yl]-5-fluoro-2,4-pyrimidinediamine] | 6.30 to 7.00 |
| CC1(C)Oc2ccc(Nc3nc(Nc4ccc(N5CCOCC5)c(OC(F)(F)F)c4)ncc3F)nc2NC1=O [Compound 28, N4-(2,2-dimethyl-3,4-dihydro-3-oxo-2H-pyrido[3,2-b][1,4]oxazin-6-yl)-5-fluoro-N2-[3-trifluoromethoxy-4-morpholinophenyl]-2,4-pyrimidinediamine] | < 4.00 |

The next lines start with the values.

| pIC50 | SMILES |
| --- | --- |
| > 7.00 | CC1(C)Oc2ccc(Nc3nc(Nc4ccc(N5C[C@@H]6C[C@H]5CO6)nc4)ncc3F)nc2NC1=O [Compound 92, N4-(2,2-dimethyl-3,4-dihydro-3-oxo-2H-pyrido[3,2-b][1,4]oxazin-6-yl)-5-fluoro-N2-[6-((1S,4S)-5-oxa-2-aza-bicyclo[2.2.1]heptan-2-yl)pyridin-3-yl]-2,4-pyrimidinediamine] |
| > 7.00 | [2H]C1([2H])OC([2H])([2H])C([2H])([2H])N(c2ccc(Nc3ncc(F)c(Nc4ccc5c(n4)NC(=O)CO5)n3)cc2)C1([2H])[2H] [Compound 130, N4-(2,2-dimethyl-3,4-dihydro-3-oxo-2H-pyrido[3,2-b][1,4]oxazin-6-yl)-5-fluoro-N2-[4-(2,2,3,3,5,5,6,6-d8-morpholino)phenyl]-2,4-pyrimidinediamine] |
| > 7.00 | CC1(C)Oc2ccc(Nc3nc(Nc4ccc5nc(-c6ccncc6)[nH]c5c4)ncc3F)nc2NC1=O [Compound 132, N4-(2,2-dimethyl-3,4-dihydro-3-oxo-2H-pyrido[3,2-b][1,4]oxazin-6-yl)-5-fluoro-N2-[2-(pyridin-4-yl)-1H-benzo[d]imidazol-6-yl]-2,4-pyrimidinediamine] |
| > 7.00 | O=C1COc2ccc(Nc3nc(Nc4ccc(C5CCOCC5)cc4)ncc3F)nc2N1 [Compound 46, N4-(3,4-dihydro-3-oxo-2H-pyrido[3,2-b][1,4]oxazin-6-yl)-5-fluoro-N2-[4-tetrahydropyranophenyl]-2,4-pyrimidinediamine] |
| 6.30 to 7.00 | C[C@@H]1COCCN1c1ccc(Nc2ncc(F)c(Nc3ccc4c(n3)NC(=O)C(C)(C)O4)n2)cc1 [Compound 81] |
| 6.30 to 7.00 | CC(C)[C@@H]1COC(=O)N1c1ccc(Nc2ncc(F)c(Nc3ccc4c(n3)NC(=O)C(C)(C)O4)n2)cn1 [Compound 73, N4-(2,2-dimethyl-3,4-dihydro-3-oxo-2H-pyrido[3,2-b][1,4]oxazin-6-yl)-5-fluoro-N2-[6-((4R)-4-isopropyl-2-oxooxazolidin-3-yl)pyridin-3-yl]-2,4-pyrimidinediamine] |
| > 7.00 | CC1(C)Oc2ccc(Nc3nc(Nc4ccc(N5CCO[C@@H](CF)C5)nc4)ncc3F)nc2NC1=O [Compound 145, N4-(2,2-dimethyl-3,4-dihydro-3-oxo-2H-pyrido[3,2-b][1,4]oxazin-6-yl)-5-fluoro-N2-[6-((2R)-2-(fluoromethyl)morpholino)pyridin-3-yl]-2,4-pyrimidinediamine] |
| > 7.00 | CC1(C)Oc2ccc(Nc3nc(Nc4ccc(N5CCC(O)C5)nc4)ncc3F)nc2NC1=O (stereo in doubt) [Compound 55, N4-(2,2-dimethyl-3,4-dihydro-3-oxo-2H-pyrido[3,2-b][1,4]oxazin-6-yl)-5-fluoro-N2-[6-((3R)-3-hydroxypyrrolidin-1-yl)pyridin-3-yl]-2,4-pyrimidinediamine] |
| > 7.00 | CC1(C)CN(c2ccc(Nc3ncc(F)c(Nc4ccc5c(n4)NC(=O)CO5)n3)cc2)CCO1 [Compound 115, N4-(3,4-dihydro-3-oxo-2H-pyrido[3,2-b][1,4]oxazin-6-yl)-N2-[4-(2,2-dimethylmorpholino)phenyl]-5-fluoro-2,4-pyrimidinediamine] |

same assay, conditions: anti-IgG stimulation, activity of tryptase released upon degranulation

| SMILES | pIC50 |
| --- | --- |
| O=C1COc2ccc(Nc3nc(Nc4ccc(N5CCOCC5)cc4)ncc3F)nc2N1COP(=O)(O)O [Compound 114, N4-(3,4-dihydro-4-[(dihydrogenphosphonoxy)methyl]-3-oxo-2H-pyrido[3,2-b][1,4]oxazin-6-yl)-5-fluoro-N2-(4-morpholinophenyl)-2,4-pyrimidinediamine disodium salt] | 4.00 to 6.00 |
| CC1(C)Oc2ccc(Nc3nc(Nc4ccc(N5CCOCC5)nc4)ncc3F)nc2NC1=O [Compound 141, N4-(2,2-dimethyl-3,4-dihydro-3-oxo-2H-pyrido[3,2-b][1,4]oxazin-6-yl)-5-fluoro-N2-[6-morpholinopyridin-3-yl]-2,4-pyrimidinediamine benzenesulfonic acid salt] | 6.30 to 7.00 |
